Experimental data: ChEMBL document CHEMBL1649243, “TEM-168, a heretofore laboratory-derived TEM beta-lactamase variant found in an Escherichia coli clinical isolate” (2009)
Converted amounts (≈) assume the structure as drawn.

Assays:
Format in all cases: functional
Escherichia coli [1] = test: Antimicrobial activity against Escherichia coli NO8-1503 harboring blaTEM-168 gene by Etest
Escherichia coli [2] = test: Antimicrobial activity against Escherichia coli DH10B transformant harboring blaTEM-168 gene by broth microdilution method
Escherichia coli [3] = test: Antimicrobial activity against Escherichia coli DH10B transformant harboring blaTEM-168 gene by Etest
Escherichia coli [4] = test: Antimicrobial activity against Escherichia coli NO8-1503 harboring blaTEM-168 gene by broth microdilution method
Escherichia coli [5] = test: Antimicrobial activity against Escherichia coli NO8-1503 harboring blaTEM-168 gene by Etest in presence of clavulanic acid
Escherichia coli [6] = test: Antimicrobial activity against Escherichia coli DH10B transformant harboring blaTEM-168 gene by Etest in presence of clavulanic acid
Escherichia coli [7] = test: Antimicrobial activity against Escherichia coli DH10B by Etest in presence of clavulanic acid
Escherichia coli [8] = test: Antimicrobial activity against Escherichia coli NO8-1503 harboring blaTEM-168 gene by disk diffusion method in presence of clavulanic acid
Escherichia coli [9] = test: Antimicrobial activity against Escherichia coli NO8-1503 harboring blaTEM-168 gene by broth microdilution method in presence of clavulanic acid
Escherichia coli [10] = test: Antimicrobial activity against Escherichia coli DH10B by disk diffusion method
Escherichia coli [11] = test: Antimicrobial activity against Escherichia coli DH10B by disk diffusion method in presence of clavulanic acid
Escherichia coli [12] = test: Antimicrobial activity against Escherichia coli DH10B by broth microdilution method in presence of clavulanic acid
Escherichia coli [13] = test: Antimicrobial activity against Escherichia coli DH10B by Etest
Escherichia coli [14] = test: Antimicrobial activity against Escherichia coli NO8-1503 harboring blaTEM-168 gene by disk diffusion method
Escherichia coli [15] = test: Antimicrobial activity against Escherichia coli DH10B by broth microdilution method
Escherichia coli [16] = test: Antimicrobial activity against Escherichia coli DH10B transformant harboring blaTEM-168 gene by disk diffusion method
Escherichia coli [17] = test: Antimicrobial activity against Escherichia coli DH10B transformant harboring blaTEM-168 gene by disk diffusion method in presence of clavulanic acid
Escherichia coli [18] = test: Antimicrobial activity against Escherichia coli DH10B transformant harboring blaTEM-168 gene by broth microdilution method in presence of clavulanic acid
Escherichia coli [19] = test: Antimicrobial activity against Escherichia coli NO8-1503 harboring blaTEM-168 gene by Etest in presence of Tazobactam
Escherichia coli [20] = test: Antimicrobial activity against Escherichia coli DH10B by Etest in presence of Tazobactam
Escherichia coli [21] = test: Antimicrobial activity against Escherichia coli DH10B transformant harboring blaTEM-168 gene by Etest in presence of Tazobactam

| SMILES | MIC (Escherichia coli [1]) [µg/mL] | MIC (Escherichia coli [2]) [µg/mL] | MIC (Escherichia coli [3]) [µg/mL] | MIC (Escherichia coli [4]) [µg/mL] | MIC (Escherichia coli [5]) [µg/mL] | MIC (Escherichia coli [6]) [µg/mL] | MIC (Escherichia coli [7]) [µg/mL] | inhibition zone (IZ) (Escherichia coli [8]) [mm] | MIC (Escherichia coli [9]) [µg/mL] | inhibition zone (IZ) (Escherichia coli [10]) [mm] | inhibition zone (IZ) (Escherichia coli [11]) [mm] | MIC (Escherichia coli [12]) [µg/mL] | MIC (Escherichia coli [13]) [µg/mL] | inhibition zone (IZ) (Escherichia coli [14]) [mm] | MIC (Escherichia coli [15]) [µg/mL] | inhibition zone (IZ) (Escherichia coli [16]) [mm] | inhibition zone (IZ) (Escherichia coli [17]) [mm] | other results |
| --- | --- | --- | --- | --- | --- | --- | --- | --- | --- | --- | --- | --- | --- | --- | --- | --- | --- | --- |
| CO/N=C(\C(=O)N[C@@H]1C(=O)N2C(C(=O)[O-])=C(C[N+]3(C)CCCC3)CS[C@H]12)c1csc(N)n1 | 2 (≈ 4.16 µM) | 4 (≈ 8.32 µM) | 2 (≈ 4.16 µM) | 8 (≈ 16.6 µM) | – | – | – | – | – | – | – | – | – | – | – | – | – | – |
| CC1(C)S[C@@H]2[C@H](NC(=O)[C@H](N)c3ccc(O)cc3)C(=O)N2[C@H]1C(=O)O [AMOXICILLIN] | – | – | – | – | 32 | 64 | 3 | – | – | – | – | – | – | – | – | – | – | – |
| CO/N=C(\C(=O)N[C@@H]1C(=O)N2C(C(=O)O)=C(COC(C)=O)CS[C@H]12)c1csc(N)n1 [CEFOTAXIME] | 0.25 (≈ 0.549 µM) | – | 0.25 (≈ 0.549 µM) | ≤ 0.25 | 0.094 | 0.094 | 0.094 | 24 | ≤ 0.12 | 29 | 33 | ≤ 0.12 | < 0.25 | 23 | ≤ 0.25 | 26 | 30 | – |
| CO[C@@]1(NC(=O)Cc2cccs2)C(=O)N2C(C(=O)O)=C(COC(N)=O)CS[C@@H]21 [CEFOXITIN] | 12 (≈ 28.1 µM) | – | 6 (≈ 14 µM) | – | – | – | – | – | – | – | – | – | 8 (≈ 18.7 µM) | – | – | – | – | – |
| COCC1=C(C(=O)O)N2C(=O)[C@@H](NC(=O)/C(=N\OC)c3csc(N)n3)[C@H]2SC1 [CEFPODOXIME] | – | 4 (≈ 9.36 µM) | – | 8 (≈ 18.7 µM) | – | – | – | 15 | 0.5 | 27 | 21 | ≤ 0.125 | – | 20 | 1 (≈ 2.34 µM) | 20 | 16 | MIC (Escherichia coli [18]): 0.25 µg/mL |
| CC(C)(O/N=C(\C(=O)N[C@@H]1C(=O)N2C(C(=O)[O-])=C(C[n+]3ccccc3)CS[C@H]12)c1csc(N)n1)C(=O)O [CEFTAZIDIME] | 3 (≈ 5.49 µM) | 4 (≈ 7.32 µM) | 3 (≈ 5.49 µM) | 4 (≈ 7.32 µM) | 0.75 | 1 | 0.38 | 11 | 2 | 16 | 18 | 0.25 | 1 (≈ 1.83 µM) | 8 | ≤ 0.25 | 8 | 10 | MIC (Escherichia coli [18]): 1 µg/mL |
| CCN1CCN(C(=O)N[C@@H](C(=O)N[C@@H]2C(=O)N3[C@@H]2SC(C)(C)[C@@H]3C(=O)O)c2ccccc2)C(=O)C1=O [PIPERACILLIN] | – | – | – | – | – | – | – | – | – | – | – | – | – | – | – | – | – | MIC (Escherichia coli [19]): > 256 µg/mL; MIC (Escherichia coli [20]): 1.5 µg/mL; MIC (Escherichia coli [21]): > 256 µg/mL |
